Consider 27 compounds from patent US8841449B2, “Compounds useful as inhibitors of ATR kinase” (Vertex Pharmaceuticals Incorporated, priority 2011, dated 2014).

The nature of data set [1]: Pharmacokinetics (clearance and volume of distribution). As to conditions: for clearance / Vd: in vivo, noncompartmental, intravenous (IV) dosing, species not given; for Vd: read-out: Vss (steady state volume of distribution). Format: in vivo. From the text: Noncompartmental pharmacokinetic parameters can be analyzed using Watson Bioanalytical LIMS (Version 7.4; Thermo Fisher Scientific) from either the blood or plasma samples. The following parameters can be estimated following intravenous (IV) dosing: terminal elimination half-life (T1/2=ln(2)/λz, where λz is the first order rate constant associated with the terminal (log-linear) portion of the curve); the area under the curve (AUClast=area under the curve from the time of dosing to the last measurable concentration); the area under the curve extrapolated to infinity (AUC0-∞=AUClast+Clast/λz). The clearance (Cl; Cl=DoseIV/AUC0-∞); the area under the first moment curve (AUMClast=area under the concentration times time versus time curve from the time of dosing to the last measurable concentration); the area under the first moment curve extrapolated to infinity (AUMC0-∞=AUMClast+Clast×t/λz+Clast/λz^2); the mean residence time (MRT=AUMC0-∞/AUC0-∞); and the steady state volume of distribution (Vdss=MRT×Cl).
Clearance and volume of distribution can also be obtained using methods known to one of skill in the art (see e.g., Handbook of Essential Pharmacokinetics, Pharmacodynamics and Drug Metabolism for Industrial Scientists, Younggil Kwon, pp 18-28 (Noncompartmental Approach)).

Data set [2] addresses T1, ATR kinase (full-length ATR) (Homo sapiens, UniProt Q13535).
T1 construct: Assays were carried out at 25° C. in the presence of 5 nM full-length ATR
Kind of data set: ATR Inhibition Assay (radioactive-phosphate incorporation). As to conditions: Ki(app); 10 μM ATP, 800 μM target peptide, 5 nM full-length ATR, 25° C. Format: biochemical. The protocol: Compounds were screened for their ability to inhibit ATR kinase using a radioactive-phosphate incorporation assay. Assays were carried out in a mixture of 50 mM Tris/HCl (pH 7.5), 10 mM MgCl2 and 1 mM DTT. Final substrate concentrations were 10 μM [γ-33P]ATP (3mCi 33P ATP/mmol ATP, Perkin Elmer) and 800 μM target peptide (ASELPASQPQPFSAKKK).
Assays were carried out at 25° C. in the presence of 5 nM full-length ATR. An assay stock buffer solution was prepared containing all of the reagents listed above, with the exception of ATP and the test compound of interest. 13.5 μL of the stock solution was placed in a 96 well plate followed by addition of 2 μL of DMSO stock containing serial dilutions of the test compound (typically starting from a final concentration of 15 μM with 3-fold serial dilutions) in duplicate (final DMSO concentration 7%). The plate was pre-incubated for 10 minutes at 25° C. and the reaction initiated by addition of 15 μL [γ-33P]ATP (final concentration 10 μM).
The reaction was stopped after […] by the addition of 30 μL 0.1M phosphoric acid containing 2 mM ATP. A multiscreen phosphocellulose filter 96-well plate (Millipore, Cat no. MAPHN0B50) was pretreated with 100 μL 0.2M phosphoric acid prior to the addition of 45 μL of the stopped assay mixture. The plate was washed with 5×200 μL 0.2M phosphoric acid. After drying, 100 μL Optiphase ‘SuperMix’ liquid scintillation cocktail (Perkin Elmer) was added to the well prior to scintillation counting (1450 Microbeta Liquid Scintillation Counter, Wallac).
After removing mean background values for all of the data points, Ki(app) data were calculated from non-linear regression analysis of the initial rate data using the Prism software package (GraphPad Prism version 3.0cx for Macintosh, GraphPad Software, San Diego Calif., USA).

T1 sequence (Q13535 whole entry): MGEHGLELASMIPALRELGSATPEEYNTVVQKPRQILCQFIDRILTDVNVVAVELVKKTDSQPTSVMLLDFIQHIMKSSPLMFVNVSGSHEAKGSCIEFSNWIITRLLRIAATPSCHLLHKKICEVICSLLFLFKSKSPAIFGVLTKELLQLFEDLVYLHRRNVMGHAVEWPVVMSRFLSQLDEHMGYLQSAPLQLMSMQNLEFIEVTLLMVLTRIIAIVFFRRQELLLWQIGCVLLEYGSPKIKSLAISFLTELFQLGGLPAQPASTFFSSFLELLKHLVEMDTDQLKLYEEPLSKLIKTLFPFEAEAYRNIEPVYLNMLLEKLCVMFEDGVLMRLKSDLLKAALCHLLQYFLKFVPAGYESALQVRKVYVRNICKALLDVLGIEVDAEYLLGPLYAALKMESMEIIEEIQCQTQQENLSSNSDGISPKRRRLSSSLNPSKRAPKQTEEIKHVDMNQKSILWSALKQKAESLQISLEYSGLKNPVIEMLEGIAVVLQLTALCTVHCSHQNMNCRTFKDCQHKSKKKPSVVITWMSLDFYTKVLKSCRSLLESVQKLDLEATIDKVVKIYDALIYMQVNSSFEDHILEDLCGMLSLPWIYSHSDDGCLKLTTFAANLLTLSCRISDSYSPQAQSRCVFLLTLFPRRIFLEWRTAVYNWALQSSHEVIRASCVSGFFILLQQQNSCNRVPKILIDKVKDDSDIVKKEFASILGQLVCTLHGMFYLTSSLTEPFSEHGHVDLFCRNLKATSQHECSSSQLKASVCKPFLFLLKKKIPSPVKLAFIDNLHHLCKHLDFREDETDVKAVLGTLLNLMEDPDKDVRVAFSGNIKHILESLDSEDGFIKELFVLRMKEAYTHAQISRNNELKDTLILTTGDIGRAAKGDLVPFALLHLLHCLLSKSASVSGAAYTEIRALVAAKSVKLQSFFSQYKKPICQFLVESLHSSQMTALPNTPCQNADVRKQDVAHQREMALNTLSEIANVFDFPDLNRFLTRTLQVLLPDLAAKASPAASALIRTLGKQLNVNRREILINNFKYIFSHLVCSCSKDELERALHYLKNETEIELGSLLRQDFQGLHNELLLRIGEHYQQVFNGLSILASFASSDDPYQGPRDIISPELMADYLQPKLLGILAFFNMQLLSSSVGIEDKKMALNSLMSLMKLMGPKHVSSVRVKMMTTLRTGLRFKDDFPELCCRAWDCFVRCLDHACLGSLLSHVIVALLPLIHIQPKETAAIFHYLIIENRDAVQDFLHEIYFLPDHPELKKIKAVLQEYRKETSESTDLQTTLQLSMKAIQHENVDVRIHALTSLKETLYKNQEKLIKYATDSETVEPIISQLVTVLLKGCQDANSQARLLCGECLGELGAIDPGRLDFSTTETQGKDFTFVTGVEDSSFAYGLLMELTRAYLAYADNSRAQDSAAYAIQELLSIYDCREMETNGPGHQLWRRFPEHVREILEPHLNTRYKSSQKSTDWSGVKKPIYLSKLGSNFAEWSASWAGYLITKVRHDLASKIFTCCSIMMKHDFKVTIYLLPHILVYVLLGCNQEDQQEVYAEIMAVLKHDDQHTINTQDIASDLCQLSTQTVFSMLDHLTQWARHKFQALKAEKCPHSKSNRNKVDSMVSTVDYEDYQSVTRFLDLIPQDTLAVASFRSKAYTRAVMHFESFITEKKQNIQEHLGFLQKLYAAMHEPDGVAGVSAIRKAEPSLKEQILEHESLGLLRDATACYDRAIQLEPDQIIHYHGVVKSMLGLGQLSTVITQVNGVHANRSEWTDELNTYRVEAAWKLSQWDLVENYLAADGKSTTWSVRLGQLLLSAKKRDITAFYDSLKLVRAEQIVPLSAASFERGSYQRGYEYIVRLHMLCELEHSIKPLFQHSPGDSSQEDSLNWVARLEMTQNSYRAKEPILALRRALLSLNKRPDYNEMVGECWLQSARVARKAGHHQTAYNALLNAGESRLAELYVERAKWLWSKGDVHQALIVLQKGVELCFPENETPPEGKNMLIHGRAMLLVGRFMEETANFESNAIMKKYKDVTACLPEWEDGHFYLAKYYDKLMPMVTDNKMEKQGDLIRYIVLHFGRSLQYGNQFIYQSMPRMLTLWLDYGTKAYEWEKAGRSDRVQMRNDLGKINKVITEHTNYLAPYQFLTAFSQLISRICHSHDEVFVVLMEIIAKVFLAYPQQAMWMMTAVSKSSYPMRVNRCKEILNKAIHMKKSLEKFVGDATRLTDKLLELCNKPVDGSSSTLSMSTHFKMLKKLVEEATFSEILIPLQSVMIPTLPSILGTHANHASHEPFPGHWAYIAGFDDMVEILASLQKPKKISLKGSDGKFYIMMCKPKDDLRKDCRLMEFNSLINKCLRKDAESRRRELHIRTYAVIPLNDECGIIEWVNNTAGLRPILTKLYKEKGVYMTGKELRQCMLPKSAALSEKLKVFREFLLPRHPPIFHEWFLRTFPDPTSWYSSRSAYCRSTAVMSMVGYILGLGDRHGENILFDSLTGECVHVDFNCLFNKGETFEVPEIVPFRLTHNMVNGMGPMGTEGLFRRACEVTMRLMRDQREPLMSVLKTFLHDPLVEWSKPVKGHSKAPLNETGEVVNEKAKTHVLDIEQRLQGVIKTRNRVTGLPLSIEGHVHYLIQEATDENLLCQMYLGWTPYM

The term clearance denotes a measure of how efficiently the substance is removed, as volume per time. Read a high clearance as efficient removal. Regarding `Cc1ccsc1-c1nnc(-c2nc(-c3ccc(S(=O)(=O)C4CCNCC4)cc3)cnc2N)o1` [Compound A, reference compound], in data set [1], the clearance was 34.3 mL/min/kg and the Vd was 12.5 L/kg.

For the compound `Nc1ncc(-c2ccc(S(=O)(=O)C3CCCNC3)cc2)nc1-c1cc(-c2ccccc2)no1` (stereo not shown) [Compound I-1, 3-(3-phenylisoxazol-5-yl)-5-(4-(piperidin-3-ylsulfonyl)phenyl)pyrazin-2-amine], in data set [1], the clearance is 0.9 mL/min/kg and the Vd was 0.9 L/kg. Also, in data set [2], the Ki was no more than 5 nM. As to `Cc1ccsc1-c1cc(-c2nc(-c3ccc(S(=O)(=O)C4CCCNC4)cc3)cnc2N)on1` (stereo not shown) [Compound I-2, 3-(3-(3-methylthiophen-2-yl)isoxazol-5-yl)-5-(4-(piperidin-3-ylsulfonyl)phenyl)pyrazin-2-amine], the Ki in data set [2] is no more than 5 nM. For the compound `Nc1ncc(-c2ccc(S(=O)(=O)C3CCCNC3)cc2)nc1-c1cc(-c2cccs2)no1` (stereo not shown) [Compound I-3, 5-(4-(piperidin-3-ylsulfonyl)phenyl)-3-(3-(thiophen-2-yl)isoxazol-5-yl)pyrazin-2-amine], in data set [1], the clearance was determined as 3.3 mL/min/kg and the Vd amounted to 1 L/kg. Besides, in data set [2], the Ki was no more than 5 nM. As for `Nc1ncc(-c2ccc(S(=O)(=O)C3CCCNC3)cc2)nc1-c1cc(-c2ccc(O)cc2)no1` (stereo not shown) [Compound I-4, 4-(5-(3-amino-6-(4-(piperidin-3-ylsulfonyl)phenyl)pyrazin-2-yl)isoxazol-3-yl)phenol], the Ki in data set [2] is no more than 5 nM.

In the case of `CNCc1ccc(-c2cc(-c3nc(-c4ccc(S(=O)(=O)C5CCCNC5)cc4)cnc3N)on2)cc1` (stereo not shown) [Compound I-5, 3-(3-(4-((methylamino)methyl)phenyl)isoxazol-5-yl)-5-(4-(piperidin-3-ylsulfonyl)phenyl)pyrazin-2-amine], the Ki in data set [2] is no more than 5 nM. As to `Nc1ncc(-c2ccc(S(=O)(=O)C3CCCNC3)cc2)nc1-c1cc(-c2ccc(CNC3CCOCC3)cc2)no1` (stereo not shown) [Compound I-6, 5-(4-(piperidin-3-ylsulfonyl)phenyl)-3-(3-(4-(((tetrahydro-2H-pyran-4-yl)amino)methyl)phenyl)isoxazol-5-yl)pyrazin-2-amine], the Ki in data set [2] is no more than 5 nM.

Regarding `Nc1ncc(-c2ccc(S(=O)(=O)[C@@H]3CCCNC3)cc2)nc1-c1cc(-c2ccc([C@@H]3COCCN3)cc2)no1` [Compound I-7, 3-(3-(4-((R)-morpholin-3-yl)phenyl)isoxazol-5-yl)-5-(4-((R)-piperidin-3-ylsulfonyl)phenyl)pyrazin-2-amine], the Ki in data set [2] was no more than 5 nM. For `Nc1ncc(-c2ccc(S(=O)(=O)C3CCCNC3)cc2)nc1-c1cc(-c2ccsc2)no1` (stereo not shown) [Compound I-8, 5-(4-(piperidin-3-ylsulfonyl)phenyl)-3-(3-(thiophen-3-yl)isoxazol-5-yl)pyrazin-2-amine], the Ki in data set [2] was no more than 5 nM. On to `Nc1ncc(-c2ccc(S(=O)(=O)C3CCCNC3)cc2)nc1-c1cc(-c2nccs2)no1` (stereo not shown) [Compound I-9, 5-(4-(piperidin-3-ylsulfonyl)phenyl)-3-(3-(thiazol-2-yl)isoxazol-5-yl)pyrazin-2-amine], for which the Ki in data set [2] is no more than 5 nM. Take `Cc1ccsc1-c1nnc(-c2nc(-c3ccc(S(=O)(=O)C4CCCNC4)cc3)cnc2N)o1` (stereo not shown) [Compound I-10, 3-(5-(3-methylthiophen-2-yl)-1,3,4-oxadiazol-2-yl)-5-(4-(piperidin-3-ylsulfonyl)phenyl)pyrazin-2-amine]: the “PK properties (clearance and volume of distribution) compared with similar compounds” value in data set [1] (compared to a similar 4-piperidine compound (Compound A)) is “much lower clearance and volume of distribution”. Moreover, in data set [1], the clearance was 9.3 mL/min/kg and the Vd worked out at 3 L/kg. The Ki in data set [2] was no more than 5 nM.

For `Nc1ncc(-c2ccc(S(=O)(=O)C3CCCNC3)cc2)nc1-c1nnc(-c2sccc2F)o1` (stereo not shown) [Compound I-11, 3-(5-(3-fluorothiophen-2-yl)-1,3,4-oxadiazol-2-yl)-5-(4-(piperidin-3-ylsulfonyl)phenyl)pyrazin-2-amine], the Ki in data set [2] is no more than 5 nM. `Nc1ncc(-c2ccc(S(=O)(=O)C3CCCNC3)cc2)nc1-c1nnc(-c2cccs2)o1` (stereo not shown) [Compound I-12, 5-(4-(piperidin-3-ylsulfonyl)phenyl)-3-(5-(thiophen-2-yl)-1,3,4-oxadiazol-2-yl)pyrazin-2-amine]: in data set [2], the Ki is no more than 5 nM. Take `COc1ccsc1-c1nnc(-c2nc(-c3ccc(S(=O)(=O)C4CCCNC4)cc3)cnc2N)o1` (stereo not shown) [Compound I-13, 3-(5-(3-methoxythiophen-2-yl)-1,3,4-oxadiazol-2-yl)-5-(4-(piperidin-3-ylsulfonyl)phenyl)pyrazin-2-amine]: the Ki in data set [2] is no more than 5 nM. With `COc1ccccc1-c1nnc(-c2nc(-c3ccc(S(=O)(=O)C4CCCNC4)cc3)cnc2N)o1` (stereo not shown) [Compound I-14, 3-(5-(2-methoxyphenyl)-1,3,4-oxadiazol-2-yl)-5-(4-(piperidin-3-ylsulfonyl)phenyl)pyrazin-2-amine], in data set [1], the clearance worked out at 16 mL/min/kg and the Vd came out at 2 L/kg. In data set [2], the Ki was no more than 5 nM. `Cc1ccsc1-c1nnc(-c2nc(-c3ccc(S(=O)(=O)[C@H]4CCCNC4)cc3)cnc2N)o1` [Compound I-15, (S)-3-(5-(3-methylthiophen-2-yl)-1,3,4-oxadiazol-2-yl)-5-(4-(piperidin-3-ylsulfonyl)phenyl)pyrazin-2-amine]: the Ki in data set [2] is no more than 5 nM. Turning to `Cc1ccsc1-c1nnc(-c2nc(-c3ccc(S(=O)(=O)[C@@H]4CCCNC4)cc3)cnc2N)o1` [Compound I-16, (R)-3-(5-(3-methylthiophen-2-yl)-1,3,4-oxadiazol-2-yl)-5-(4-(piperidin-3-ylsulfonyl)phenyl)pyrazin-2-amine], the Ki in data set [2] was no more than 5 nM. As for `Nc1ncc(-c2ccc(S(=O)(=O)C3CCCNC3)cc2)nc1-c1nnc(-c2ccc(C3COCCN3)cc2)o1` (stereo not shown) [Compound I-17, 3-(5-(4-(morpholin-3-yl)phenyl)-1,3,4-oxadiazol-2-yl)-5-(4-(piperidin-3-ylsulfonyl)phenyl)pyrazin-2-amine], the Ki in data set [2] is no more than 5 nM. Regarding `Nc1ncc(-c2ccc(S(=O)(=O)C3CCCNC3)cc2)nc1-c1nnc(-c2ccccc2)s1` (stereo not shown) [Compound I-18, 3-(5-phenyl-1,3,4-thiadiazol-2-yl)-5-(4-(piperidin-3-ylsulfonyl)phenyl)pyrazin-2-amine], the Ki in data set [2] was no more than 5 nM. In the case of `Nc1ncc(-c2ccc(S(=O)(=O)C3CCCNC3)cc2)nc1-c1nnc(-c2ccccc2)o1` (stereo not shown) [Compound I-19], in data set [2], the Ki was no more than 5 nM.

In the case of `Nc1ncc(-c2ccc(S(=O)(=O)C3CCCNC3)cc2)nc1-c1cc(-c2ccc(OCCO)cc2)no1` (stereo not shown) [Compound I-20], the Ki in data set [2] was 5 to 10 nM. Still for that read-out and setting: the same measure for `Nc1ncc(-c2ccc(S(=O)(=O)C3CCCNC3)cc2)nc1-c1cc(-c2ccc(CO)cc2)no1` (stereo not shown) [Compound I-21]: 5 to 10 nM. Regarding `Nc1ncc(-c2ccc(S(=O)(=O)C3CCCNC3)cc2)nc1-c1cc(-c2ccccc2F)no1` (stereo not shown) [Compound I-22], in data set [2], the Ki is 10 to 25 nM.

In the case of `COc1ccccc1-c1cc(-c2nc(-c3ccc(S(=O)(=O)C4CCCNC4)cc3)cnc2N)on1` (stereo not shown) [Compound I-23], the Ki in data set [2] was 5 to 10 nM. On to `Cc1ccccc1-c1cc(-c2nc(-c3ccc(S(=O)(=O)C4CCCNC4)cc3)cnc2N)on1` (stereo not shown) [Compound I-24], for which the Ki in data set [2] is 10 to 25 nM. With `Nc1ncc(-c2ccc(S(=O)(=O)C3CCCNC3)cc2)nc1-c1cc(-c2ccccc2Cl)no1` (stereo not shown) [Compound I-25], the Ki in data set [2] is 10 to 25 nM. Still for that read-out and setting: the figure for `Nc1ncc(-c2ccc(S(=O)(=O)C3CCCNC3)cc2)nc1-c1cc(-c2ccccc2O)no1` (stereo not shown) [Compound I-26] is no more than 5 nM.
